# Source: patent EP0525360B1, “Novel phenylacetamide derivatives and processes for the preparation thereof” (KOREA RESEARCH INSTITUTE OF CHEMICAL TECHNOLOGY, priority 1991, dated 1993)
# Key:
# Assay type in all cases: in vivo
# test animals = test: Behavior analysis (side-effect or toxicity scores); parameters: key to Sedation / Dyspnoea / Vasodilation / Convulsion / Salivation / Urination: behavior score; higher number = greater side effects; settings: behavior score; for Convulsion / Salivation / Urination: normal value 0; for Dyspnoea / Ptosis / Sedation / Vasodilation: normal value 4
# Excerpt: In order to monitor a harmful side-effect or toxicity of the compounds having the formula(I), various behavioral changes in the test animals were observed. […] The higher the number is, the greater the side effects are.
# KTC-ICR mice = test: phenyl-1,4-benzoquinone(PBQ) induced writhing test; settings: Mus musculus; oral; 0.02% PBQ i.p. 60 minutes later; writhings during 5 minutes; mice 10 to 15g; Examples 33 to 46
# Description: The KTC-ICR mice derived from Charles River Breeding Laboratory in the United States and provided by Experimental Animal Laboratory of Korea Research Institute of Chemical Technology were used as test animals. […] They were tested after having been adjusted to the testing environment for a week. Food and water were given freely; and illumination was maintained on a 12-hour cycle.
# Experiments were performed in two ways: that is, the acetic acid induced writhing test and the phenyl-1,4-benzoquinone(PBQ) induced writhing test.
# Alternatively, solutions for the PBQ induced writhing test were prepared by dissolving one of the products synthesized in Examples 33 to 46 in a mixture of Tween 80, alcohol and distilled water (1:5:94); and administered orally to the 5 ICR mice for each test in a dose of 0.3mℓ per 30g of body weight. 60 minutes later, 0.02% PBQ solution was administered intraperitoneally in a dose of 0.1mℓ per 30g of body weight of the test animals. 5 minutes thereafter, at the temperature of 40°C, the number of writhings occurred during a period of 5 minutes due to the PBQ solution administered was measured. For comparison, only the mixture of Tween 80, alcohol and distilled water was administered orally to the control group; and, after 60 minutes, the PBQ solution was administered intraperitoneally to the control group in the same manner as mentioned above.
# The number of writhings suffered by the test group was compared with that of the control group; and the analgesic effect was measured in terms of the percentage of inhibition of writhing(I. W.). I. W. (%) =(A - B)/(A)x 100 [formula] A : the number of writhings suffered by the control group, B : the number of writhings suffered by the test group.
# These ED50 values for the test compounds are shown in the last column of Table 1.
# mice = test: Tail-flick test (radiant heat); settings: p. o., dose 100 mg/Kg
# Description: Radiant heat was applied using a beam of high-intensity light focused on a tail spot. The response time, defined as the interval between the onset of the stimulus and the tail flick, was measured electronically(to the nearest 0.1 second). The beam intensity was set at a level giving a mean control reaction time of 3.8±0.4 seconds. […] The percentage of inhibition was determined by the following equation: Inhibition(%) =(Reaction time of the treated group - Reaction time of the control group)/(Reaction time of the control group)x 100 [formula]
compound,measurement,setting,value
"Cc1cccc(CCCNC(=O)Cc2ccc(OCCN)c(N)c2)c1 [Example 38, N-{3-(3-methylphenyl)propyl}-4-(2-aminoethoxy)-3-aminophenylacetamide]",Convulsion,test animals; dose 6.7mg/Kg,0
same,Salivation,test animals; dose 6.7mg/Kg,0
same,Urination,test animals; dose 6.7mg/Kg,0
same,Dyspnoea,test animals; dose 6.7mg/Kg,4
same,Ptosis,test animals; dose 6.7mg/Kg,4
same,Sedation,test animals; dose 6.7mg/Kg,4
same,Vasodilation,test animals; dose 6.7mg/Kg,4
same,Convulsion,test animals; dose 20mg/Kg,0
same,Salivation,test animals; dose 20mg/Kg,0
same,Urination,test animals; dose 20mg/Kg,0
same,Dyspnoea,test animals; dose 20mg/Kg,4
same,Ptosis,test animals; dose 20mg/Kg,5
same,Sedation,test animals; dose 20mg/Kg,4
same,Vasodilation,test animals; dose 20mg/Kg,4
same,Convulsion,test animals; dose 60mg/Kg,0
same,Salivation,test animals; dose 60mg/Kg,0
same,Urination,test animals; dose 60mg/Kg,0
same,Dyspnoea,test animals; dose 60mg/Kg,7
same,Ptosis,test animals; dose 60mg/Kg,7
same,Sedation,test animals; dose 60mg/Kg,6
same,Vasodilation,test animals; dose 60mg/Kg,4
same,ED50,KTC-ICR mice,22.1 mg/kg
"NCCOc1ccc(CC(=O)NCCCc2ccc(Cl)cc2)cc1N [Example 39, N-{3-(4-chlorophenyl)propyl}-4-(2-aminoethoxy)-3-aminophenylacetamide]",Convulsion,test animals; dose 10mg/Kg,0
same,Salivation,test animals; dose 10mg/Kg,0
same,Urination,test animals; dose 10mg/Kg,0
same,Dyspnoea,test animals; dose 10mg/Kg,4
same,Ptosis,test animals; dose 10mg/Kg,4
same,Sedation,test animals; dose 10mg/Kg,4
same,Vasodilation,test animals; dose 10mg/Kg,4
same,Convulsion,test animals; dose 25mg/Kg,0
same,Salivation,test animals; dose 25mg/Kg,0
same,Urination,test animals; dose 25mg/Kg,0
same,Dyspnoea,test animals; dose 25mg/Kg,4
same,Ptosis,test animals; dose 25mg/Kg,4
same,Sedation,test animals; dose 25mg/Kg,4
same,Vasodilation,test animals; dose 25mg/Kg,4
same,Convulsion,test animals; dose 50mg/Kg,0
same,Salivation,test animals; dose 50mg/Kg,0
same,Urination,test animals; dose 50mg/Kg,0
same,Dyspnoea,test animals; dose 50mg/Kg,4
same,Ptosis,test animals; dose 50mg/Kg,4
same,Sedation,test animals; dose 50mg/Kg,4
same,Vasodilation,test animals; dose 50mg/Kg,4
same,ED50,KTC-ICR mice,77.6 mg/kg
"NCCOc1ccc(CC(=O)NCCCc2ccc(F)cc2)cc1N [Example 40, N-{3-(4-fluorophenyl)propyl}-4-(2-aminoethoxy)-3-aminophenylacetamide]",Convulsion,test animals; dose 10mg/Kg,0
same,Salivation,test animals; dose 10mg/Kg,0
same,Urination,test animals; dose 10mg/Kg,0
same,Dyspnoea,test animals; dose 10mg/Kg,4
same,Ptosis,test animals; dose 10mg/Kg,4
same,Sedation,test animals; dose 10mg/Kg,4
same,Vasodilation,test animals; dose 10mg/Kg,4
same,Convulsion,test animals; dose 25mg/Kg,0
same,Salivation,test animals; dose 25mg/Kg,0
same,Urination,test animals; dose 25mg/Kg,0
same,Dyspnoea,test animals; dose 25mg/Kg,4
same,Ptosis,test animals; dose 25mg/Kg,4
same,Sedation,test animals; dose 25mg/Kg,4
same,Vasodilation,test animals; dose 25mg/Kg,4
same,Convulsion,test animals; dose 50mg/Kg,0
same,Salivation,test animals; dose 50mg/Kg,0
same,Urination,test animals; dose 50mg/Kg,0
same,Dyspnoea,test animals; dose 50mg/Kg,4
same,Ptosis,test animals; dose 50mg/Kg,4
same,Sedation,test animals; dose 50mg/Kg,4
same,Vasodilation,test animals; dose 50mg/Kg,4
same,ED50,KTC-ICR mice,37.8 mg/kg
same,Inhibition(%),mice,50%
"NCCOc1ccc(CC(=O)NCCCc2ccc(Cl)c(Cl)c2)cc1N [Example 41, N-{3-(3,4-dichlorophenyl)propyl}-4-(2-aminoethoxy)-3-aminophenylacetamide]",Convulsion,test animals; dose 25mg/Kg,0
same,Salivation,test animals; dose 25mg/Kg,0
same,Urination,test animals; dose 25mg/Kg,0
same,Dyspnoea,test animals; dose 25mg/Kg,4
same,Ptosis,test animals; dose 25mg/Kg,4
same,Sedation,test animals; dose 25mg/Kg,4
same,Vasodilation,test animals; dose 25mg/Kg,4
same,Convulsion,test animals; dose 50mg/Kg,0
same,Salivation,test animals; dose 50mg/Kg,0
same,Urination,test animals; dose 50mg/Kg,0
same,Dyspnoea,test animals; dose 50mg/Kg,4
same,Ptosis,test animals; dose 50mg/Kg,4
same,Sedation,test animals; dose 50mg/Kg,5
same,Vasodilation,test animals; dose 50mg/Kg,4
same,Convulsion,test animals; dose 100mg/Kg,0
same,Salivation,test animals; dose 100mg/Kg,0
same,Urination,test animals; dose 100mg/Kg,0
same,Dyspnoea,test animals; dose 100mg/Kg,5
same,Ptosis,test animals; dose 100mg/Kg,5
same,Sedation,test animals; dose 100mg/Kg,6
same,Vasodilation,test animals; dose 100mg/Kg,4
same,ED50,KTC-ICR mice,7.18 mg/kg
